Laboratory results: patent EP1144365B1 (TANABE SEIYAKU CO., LTD., priority 1998, dated 2000)
Structures can show the parent of a compound that is named as a salt.

Tests used:
α4β1 integrin = biological target: T1, α4β1 integrin (Homo sapiens, UniProt P05556+P13612); assay: Jurkat-Endothelial Cell Adhesion Assay (Jurkat EC); assay type: cell-based; details: Jurkat cell adhesion to IL-1 stimulated endothelial cell monolayers
T1 construct: a T-cell line, Jurkat, known to express the α4β1 integrin; host or cells: Jurkat T-cell line
Protocol: The following assay established the activity of the present compounds in inhibiting β1-mediated cell adhesion in a representative in vitro system. This assay measures the adhesive interactions of a T-cell line, Jurkat, known to express the α4β1 integrin, to endothelial monolayers in the presence of test compounds. The test compounds were added in increasing concentrations to T-cells and then the T-cell compound mixture was added to IL-1 stimulated endothelial cell monolayers. The plates were incubated, washed and the percentage of attached cells was quantitated.
Human umbilical vein endothelial cells were purchased from Clonetics (San Diego, CA.) at passage number 2. The cells were grown on 0.5% porcine skin gelatin pre-coated flasks (Sigma, St. Louis MO.) in EGM-UV media (Clonetics, San Diego, CA) supplemented with 10% fetal bovine serum. Cells are refed every 2-3 days reaching confluence by day 4 to 6. […] The endothelial cells are not used following passage 6.
The T-cell line Jurkat was obtained from American Type Tissue Culture Collection (Rockville, MD) and the cells were cultured in RPMI containing 10 % fetal calf serum. The cells were washed twice in Hank's Balanced Salt Solution (HBSS) and resuspended in Dulbecco's Minimal Eagle's Media (DMEM) containing 2.5 mg/ml Human Serum Albumin (HSA). Jurkat cells (1x10^6 cells/ml) were stained with 10 ng/ml BCECF-AM (Molecular Probes, Eugene, OR)) in HBSS without phenol red. The cells were loaded with BCECF for 60 minutes in the dark at 37°C, washed 2 times, and resuspended in DMEM-HSA solution.
Confluent endothelial monolayers, grown in 96-well tissue culture plates, were stimulated for 4 hr. at 37 °C with 0.1 ng/ml (∼50 U/ml) recombinant IL-1 (Amgen, Thousand Oaks, CA). Following this incubation, the monolayers were washed twice with HBSS and 0.1 ml of DMEM-HSA solution was added. Jurkat cells (5 x 10^5 cells) were combined with the appropriate concentration of the test compound and 0.1 ml of the Jurkat cell-compound mixture was added to the endothelial cell monolayers. Generally, 100, 20, 5 and 1.25 µM compound concentrations were tested. […] Following this incubation, the monolayers were washed twice with PBS containing 1 mM calcium chloride and 1 mM magnesium chloride' and the plates were read using a Millipore Cytofluor 2300 (Marlboro, MA.). Fluorescence in each well was measured as Arbitrary Fluorescence Units and percent adhesion in the absence of compound was adjusted to 100% and the % adhesion in the presence of compound was calculated. Monolayers were also fixed in 3% paraformaldehyde and evaluated microscopically to verify the adhesion. This procedure is a modification of a previously published method (Cardarelli et al., J. Biol. Chem. 269:18668-18673 (1994)).

α4β1 = biological target: T2, α4β1 (Homo sapiens, UniProt P05556+P13612); assay: Jurkat-CS-1 assay; assay type: cell-based; details: Jurkat cell adhesion to immobilized CS-1 derived peptide
T2 construct: 100 µl of Jurkat cells (2.5 x 10^6 cells/ml) in DMEM plus BSA; host or cells: Jurkat T-cell line
Protocol: The CS-1 derived peptide, CLHPGEILDVPST, and the scrambled control peptide, CLHGPIELVSDPT, were synthesized on a Beckman 990 synthesizer using t-Boc methodology. The peptides were immobilized onto microtiter plates using the heterobifunctional crosslinker 3-(2-pyridyldithio)propionic acid N-hydroxysuccinimide ester (SPDP) as reported by Pierschbacher et al., Proc. Natl. Acad. USA, 80:1224-1227 (1983). Microtiter plates were coated with 20 µg/ml HSA for 2 hr. at room temperature, washed once with PBS and derivatized with 10 µg/ml SPDP for 1 hr. After washing, 100 µl of a 100 µg/ml cysteine containing peptide solution which had been recently dissolved was added to the wells and allowed to crosslink to the plates overnight at 4 °C. Unbound peptide was removed from plates by washing with PBS. To block non-reacted sites, the plates are coated with 100 µl of a 2.5 mg/ml BSA solution in PBS for 1 hr. at 37 °C. 100 µl of Jurkat cells (2.5 x 10^6 cells/ml) in DMEM plus BSA (2.5 mg/ml) was mixed with an appropriate concentration of the compound to be tested and the mixture was added to peptide coated dishes and incubated for 1 hr. at 37 °C. Generally 100, 20, 5 and 1.25 µM concentrations of the compound were tested.
Following this incubation the plates were washed once with PBS and the attached cells were fixed with 3% paraformaldehyde in PBS and stained with 0.5% toluidine blue in 3.7% formaldehyde. The cells were stained overnight at room temperature and the optical density at 590 nm of toluidine blue stained cells was determined using a vertical pathway spectrophotometer to quantitate attachment (VMAX Kinetic Microplate Reader, Molecular Devices, Menlo Park, CA). This procedure is a modification of a previously published method (Cardarelli et al, J. Biol. Chem., 269:18668-18673 (1994) and Cardarelli et al, Proc. Natl. Acad. Sci. USA, 83:2647-2651 (1986)).

T2 sequence (P13612 34-1032): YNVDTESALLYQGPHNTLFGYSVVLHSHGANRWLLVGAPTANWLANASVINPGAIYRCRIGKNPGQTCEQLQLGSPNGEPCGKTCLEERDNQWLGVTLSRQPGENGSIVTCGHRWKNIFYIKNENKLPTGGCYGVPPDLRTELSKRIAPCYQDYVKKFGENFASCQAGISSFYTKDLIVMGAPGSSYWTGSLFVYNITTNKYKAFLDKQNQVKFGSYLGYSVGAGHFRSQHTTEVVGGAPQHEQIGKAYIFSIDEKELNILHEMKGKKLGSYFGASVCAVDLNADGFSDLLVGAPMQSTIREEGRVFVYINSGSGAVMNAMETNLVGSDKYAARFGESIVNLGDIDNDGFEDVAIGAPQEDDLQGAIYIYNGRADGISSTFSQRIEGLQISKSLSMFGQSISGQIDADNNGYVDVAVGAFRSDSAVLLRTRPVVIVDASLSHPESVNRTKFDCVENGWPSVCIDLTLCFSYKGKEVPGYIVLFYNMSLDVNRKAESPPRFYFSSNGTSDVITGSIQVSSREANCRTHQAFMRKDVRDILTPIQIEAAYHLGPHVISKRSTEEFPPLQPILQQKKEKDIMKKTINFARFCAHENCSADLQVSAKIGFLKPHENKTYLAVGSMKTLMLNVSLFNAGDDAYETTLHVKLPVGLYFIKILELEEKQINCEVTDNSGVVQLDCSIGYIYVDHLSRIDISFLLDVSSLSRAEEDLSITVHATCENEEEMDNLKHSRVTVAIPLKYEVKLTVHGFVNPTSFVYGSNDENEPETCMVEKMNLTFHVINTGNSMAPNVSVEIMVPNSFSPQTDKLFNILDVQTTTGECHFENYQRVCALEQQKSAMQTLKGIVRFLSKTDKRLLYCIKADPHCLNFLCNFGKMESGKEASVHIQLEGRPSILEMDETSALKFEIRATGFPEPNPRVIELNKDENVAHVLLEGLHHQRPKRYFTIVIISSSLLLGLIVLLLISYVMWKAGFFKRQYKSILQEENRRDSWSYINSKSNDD
T2 sequence (P05556 21-798): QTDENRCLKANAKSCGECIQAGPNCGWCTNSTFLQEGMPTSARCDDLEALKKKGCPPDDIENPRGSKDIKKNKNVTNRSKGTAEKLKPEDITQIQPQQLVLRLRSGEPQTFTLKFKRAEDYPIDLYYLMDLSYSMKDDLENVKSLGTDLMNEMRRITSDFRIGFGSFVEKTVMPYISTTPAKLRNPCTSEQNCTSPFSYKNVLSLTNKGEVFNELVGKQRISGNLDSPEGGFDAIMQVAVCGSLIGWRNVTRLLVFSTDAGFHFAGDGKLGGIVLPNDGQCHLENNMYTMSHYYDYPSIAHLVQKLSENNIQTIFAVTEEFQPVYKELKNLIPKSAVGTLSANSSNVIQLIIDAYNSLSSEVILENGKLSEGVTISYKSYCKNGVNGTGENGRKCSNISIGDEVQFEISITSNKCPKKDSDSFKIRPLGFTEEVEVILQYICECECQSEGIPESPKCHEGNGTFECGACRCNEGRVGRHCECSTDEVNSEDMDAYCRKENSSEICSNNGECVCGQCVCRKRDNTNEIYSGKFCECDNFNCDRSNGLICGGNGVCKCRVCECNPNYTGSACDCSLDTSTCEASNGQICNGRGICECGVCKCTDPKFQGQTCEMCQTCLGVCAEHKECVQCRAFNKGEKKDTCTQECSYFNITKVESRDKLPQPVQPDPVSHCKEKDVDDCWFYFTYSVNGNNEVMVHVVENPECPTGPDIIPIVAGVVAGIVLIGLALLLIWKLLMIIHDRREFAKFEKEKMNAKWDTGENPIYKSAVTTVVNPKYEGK
T1 sequence (P13612 34-1032): as the sequence (P13612 34-1032) above
T1 sequence (P05556 21-798): as the sequence (P05556 21-798) above

SMILES | IC50 (α4β1 integrin) [nM] | IC50 (α4β1) [nM]
O=C(O)/C=C1\CCCc2cc(C(=O)N[C@@H](Cc3ccc(NC(=O)c4c(Cl)cccc4Cl)cc3)C(=O)O)ccc21 [Example 135, N-[[(5E)-5-Carboxymethylene-7,8-dihydro-2(6H)-naphthyl]carbonyl]-4-[(2,6-dichlorobenzoyl)amino]-L-phenylalanine sodium salt] | 5000 to 10000 | 500 to 1000
CC(=O)[C@@H]1C[C@H](C(=O)N[C@@H](Cc2ccc(NC(=O)c3c(Cl)cccc3Cl)cc2)C(=O)O)C1(C)C [Example 97, (1S-cis)-N-[(3-Acetyl-2,2-dimethylcyclobutyl)carbonyl]-4-[(2,6-dichlorobenzoyl)amino)-L-phenylalanine] | ≤ 800 | ≤ 80
O=C(O)c1cncc(C(=O)NC2(C(=O)N[C@@H](Cc3ccc(NC(=O)c4c(Cl)cccc4Cl)cc3)C(=O)O)CCCCC2)c1 [Example 59] | 800 to 5000 | 80 to 500
O=C(Nc1ccc(C[C@H](NC(=O)C2(NC(=O)C3CCCO3)CCCCC2)C(=O)O)cc1)c1c(Cl)cccc1Cl (some centres unmarked) [Example 68] | ≤ 800 | 80 to 500
O=C(O)/C=C\C(=O)Nc1cccc(C(=O)N[C@@H](Cc2ccc(NC(=O)c3c(Cl)cccc3Cl)cc2)C(=O)O)c1 [Example 36] | 800 to 5000 | 500 to 1000
O=C(Nc1ccc(C[C@H](NC(=O)C2(NC(=O)C3CCCC(C(=O)O)C3)CCCCC2)C(=O)O)cc1)c1c(Cl)cccc1Cl (some centres unmarked) [Example 52] | 800 to 5000 | ≤ 80
O=C(NC1CCCCC1C(=O)NC(Cc1ccc(NC(=O)c2c(Cl)cccc2Cl)cc1)C(=O)O)c1cc(C(=O)O)[nH]n1 (centres unmarked) [Example 83] | ≤ 800 | ≤ 80
O=C(NC1CCCCC1C(=O)NC(Cc1ccc(NC(=O)c2c(Cl)cccc2Cl)cc1)C(=O)O)c1ccc([N+](=O)[O-])o1 (centres unmarked) [Example 85] | ≤ 800 | ≤ 80
O=C(Nc1ccc(C[C@H](NC(=O)C2(NC(=O)C3NC(C(=O)O)CS3)CCCCC2)C(=O)O)cc1)c1c(Cl)cccc1Cl (some centres unmarked) [Example 66] | ≤ 800 | 80 to 500
O=C(Nc1ccc(C[C@H](NC(=O)[C@H]2CC[C@@H](C(=O)O)C2)C(=O)O)cc1)c1c(Cl)cccc1Cl (mixture of isomers) [Example 112, N-[cis-(3-Carboxycyclopentyl)carbonyl]-4-[(2,6-dichlorobenzoyl)amino]-L-phenylalanine] | 800 to 5000 | 80 to 500
O=C(O)/C=C/C(=O)Nc1cccc(C(=O)N[C@@H](Cc2ccc(NC(=O)c3c(Cl)cccc3Cl)cc2)C(=O)O)c1 [Example 37] | 5000 to 10000 | 500 to 1000
O=C(NC1(C(=O)N[C@@H](Cc2ccc(NC(=O)c3c(Cl)cccc3Cl)cc2)C(=O)O)CCCCC1)c1cc(O)c2ccccc2n1 [Example 64] | 800 to 5000 | 80 to 500
CC1(C)[C@@H](CC(=O)N[C@@H](Cc2ccc(NC(=O)c3c(Cl)cccc3Cl)cc2)C(=O)O)C[C@H]1C(=O)O [Example 93, (1R-cis)-N-[(3-Carboxy-2,2-dimethylcyclobutyl)acetyl]-4-[(2,6-dichlorobenzoyl)amino]-L-phenylalanine] | 800 to 5000 | 80 to 500

The remaining lines, values ahead:

IC50 (α4β1 integrin) [nM] | IC50 (α4β1) [nM] | SMILES
5000 to 10000 | 500 to 1000 | CC(O)[C@H]1C[C@@H](CC(=O)N[C@@H](Cc2ccc(NC(=O)c3c(Cl)cccc3Cl)cc2)C(=O)O)C1(C)C (stereo partly drawn) [Example 89, [1S-(1α,3α)]-4-[(2,6-Dichlorobenzoyl)amino]-N-[[3-(1-hydroxyethyl)-2,2-dimethylcyclobutyl]acetyl]-L-phenylalanine]
800 to 5000 | 80 to 500 | O=C(NC1(C(=O)N[C@@H](Cc2ccc(NC(=O)c3c(Cl)cccc3Cl)cc2)C(=O)O)CC2CCC1C2)c1cccnc1 (some centres unmarked) [Example 70]
800 to 5000 | 80 to 500 | COc1ccc(C(=O)NC2(C(=O)N[C@@H](Cc3ccc(NC(=O)c4c(Cl)cccc4Cl)cc3)C(=O)O)CCCCC2)cc1OC [Example 55]
800 to 5000 | 80 to 500 | O=C(C=C1CCC(C(=O)O)CC1)N[C@@H](Cc1ccc(NC(=O)c2c(Cl)cccc2Cl)cc1)C(=O)O (stereo partly drawn) [Example 127, N-[4-Carboxy-1-cyclohexylideneacetyl]-4-[(2,6-dichlorobenzoyl)amino]-L-phenylalanine]
≤ 800 | 80 to 500 | O=C(NC1(C(=O)N[C@@H](Cc2ccc(NC(=O)c3c(Cl)cccc3Cl)cc2)C(=O)O)CCCCC1)c1cccnc1 [Example 61]
≤ 800 | 80 to 500 | O=C(O)/C=C1\CCCc2c(C(=O)N[C@@H](Cc3ccc(NC(=O)c4c(Cl)cccc4Cl)cc3)C(=O)O)cccc21 [Example 134, N-[[(5E)-5-Carboxymethylene-7,8-dihydro-1(6H)-naphthyl]carbonyl]-4-[(2,6-dichlorobenzoyl)amino]-L-phenylalanine]
800 to 5000 | 80 to 500 | O=C(O)CCC(=O)NC1(C(=O)N[C@@H](Cc2ccc(NC(=O)c3c(Cl)cccc3Cl)cc2)C(=O)O)CCCCC1 [Example 46]
800 to 5000 | 80 to 500 | O=C(O)c1ccc(C(=O)NC2CCCCC2C(=O)NC(Cc2ccc(NC(=O)c3c(Cl)cccc3Cl)cc2)C(=O)O)nc1 (centres unmarked) [Example 81]
800 to 5000 | 500 to 1000 | CC(=O)c1cccc(OC(C)(C)C(=O)N[C@@H](Cc2ccc(NC(=O)c3c(Cl)cccc3Cl)cc2)C(=O)O)c1 [Example 19]
≤ 800 | 80 to 500 | O=C(O)c1ccc(C(=O)NC2(C(=O)N[C@@H](Cc3ccc(NC(=O)c4c(Cl)cccc4Cl)cc3)C(=O)O)CCCCC2)nc1 [Example 63]
800 to 5000 | 80 to 500 | O=C(O)c1cccc(C(=O)NC2(C(=O)N[C@@H](Cc3ccc(NC(=O)c4c(Cl)cccc4Cl)cc3)C(=O)O)CC3CCC2C3)n1 (some centres unmarked) [Example 71]
800 to 5000 | 80 to 500 | O=C(NC1CCCCC1C(=O)NC(Cc1ccc(NC(=O)c2c(Cl)cccc2Cl)cc1)C(=O)O)c1cccnc1 (centres unmarked) [Example 79]
≤ 800 | 80 to 500 | O=C(Nc1ccc(C[C@H](NC(=O)N2CCCC(C(=O)O)C2)C(=O)O)cc1)c1c(Cl)cccc1Cl (stereo partly drawn) [Example 116, 1-[[[(1S)-1-carboxy-2-[4-[(2,6-dichlorobenzoyl)amino]phenyl]ethyl]amino]carbonyl]-3-piperidinecarboxylic acid]
≤ 800 | 80 to 500 | CC1(C)[C@@H](C(=O)O)C[C@@H]1C(=O)N[C@@H](Cc1ccc(OCc2c(Cl)cccc2Cl)cc1)C(=O)O [Example 94, (1S-trans)-N-[(3-Carboxy-2,2-dimethylcyclobutyl)carbonyl]-4-[(2,6-dichlorophenyl)methoxy]-L-phenylalanine]
800 to 5000 | 500 to 1000 | O=C(O)/C=C/c1cccc(C(=O)N[C@@H](Cc2ccc(NC(=O)c3c(Cl)cccc3Cl)cc2)C(=O)O)c1 [Example 124, N-[[3-[(E)-3-Hydroxy-3-oxo-1-propenyl]phenyl]carbonyl]-4-[(2,6-dichlorobenzoyl)amino]-L-phenylalanine]
